In US6693112B2, “Compounds for enhancing chemotherapy” (The Pennsylvania State University, priority 2000, dated 2004):
Several values for one entry are separate records, joined by “and”; a condition that tells them apart may be missing. Equal values may be shown once. Read-outs that look alike come from different tables or passages of the source. Blank lines part the entries; values can stand above or below the molecule they belong to.

How the values were obtained:
MCF-7 cells = assay: Cytotoxicity toward drug-sensitive MCF-7 cells (sulforhodamine B binding assay); assay type: cell-based, human; details: for Toxicity: percent of MCF-7 cells killed by 10 μ/ml of the compound
MRP = target: T1, MRP (Homo sapiens, UniProt P33527); assay: Reversal of MRP-mediated MDR: enhancement of vincristine cytotoxicity toward MCF-7/VP cells; assay type: cell-based; details: % survival with compound alone / with compound + 1 nM vincristine; for MRP1 antagonism score: >1.0 = chemosensitization
T1 construct: MCF-7/VP cells, a cell line that expresses MRP; endogenous in cells; host or cells: MCF-7/VP cells
T1 sequence (P33527 whole entry): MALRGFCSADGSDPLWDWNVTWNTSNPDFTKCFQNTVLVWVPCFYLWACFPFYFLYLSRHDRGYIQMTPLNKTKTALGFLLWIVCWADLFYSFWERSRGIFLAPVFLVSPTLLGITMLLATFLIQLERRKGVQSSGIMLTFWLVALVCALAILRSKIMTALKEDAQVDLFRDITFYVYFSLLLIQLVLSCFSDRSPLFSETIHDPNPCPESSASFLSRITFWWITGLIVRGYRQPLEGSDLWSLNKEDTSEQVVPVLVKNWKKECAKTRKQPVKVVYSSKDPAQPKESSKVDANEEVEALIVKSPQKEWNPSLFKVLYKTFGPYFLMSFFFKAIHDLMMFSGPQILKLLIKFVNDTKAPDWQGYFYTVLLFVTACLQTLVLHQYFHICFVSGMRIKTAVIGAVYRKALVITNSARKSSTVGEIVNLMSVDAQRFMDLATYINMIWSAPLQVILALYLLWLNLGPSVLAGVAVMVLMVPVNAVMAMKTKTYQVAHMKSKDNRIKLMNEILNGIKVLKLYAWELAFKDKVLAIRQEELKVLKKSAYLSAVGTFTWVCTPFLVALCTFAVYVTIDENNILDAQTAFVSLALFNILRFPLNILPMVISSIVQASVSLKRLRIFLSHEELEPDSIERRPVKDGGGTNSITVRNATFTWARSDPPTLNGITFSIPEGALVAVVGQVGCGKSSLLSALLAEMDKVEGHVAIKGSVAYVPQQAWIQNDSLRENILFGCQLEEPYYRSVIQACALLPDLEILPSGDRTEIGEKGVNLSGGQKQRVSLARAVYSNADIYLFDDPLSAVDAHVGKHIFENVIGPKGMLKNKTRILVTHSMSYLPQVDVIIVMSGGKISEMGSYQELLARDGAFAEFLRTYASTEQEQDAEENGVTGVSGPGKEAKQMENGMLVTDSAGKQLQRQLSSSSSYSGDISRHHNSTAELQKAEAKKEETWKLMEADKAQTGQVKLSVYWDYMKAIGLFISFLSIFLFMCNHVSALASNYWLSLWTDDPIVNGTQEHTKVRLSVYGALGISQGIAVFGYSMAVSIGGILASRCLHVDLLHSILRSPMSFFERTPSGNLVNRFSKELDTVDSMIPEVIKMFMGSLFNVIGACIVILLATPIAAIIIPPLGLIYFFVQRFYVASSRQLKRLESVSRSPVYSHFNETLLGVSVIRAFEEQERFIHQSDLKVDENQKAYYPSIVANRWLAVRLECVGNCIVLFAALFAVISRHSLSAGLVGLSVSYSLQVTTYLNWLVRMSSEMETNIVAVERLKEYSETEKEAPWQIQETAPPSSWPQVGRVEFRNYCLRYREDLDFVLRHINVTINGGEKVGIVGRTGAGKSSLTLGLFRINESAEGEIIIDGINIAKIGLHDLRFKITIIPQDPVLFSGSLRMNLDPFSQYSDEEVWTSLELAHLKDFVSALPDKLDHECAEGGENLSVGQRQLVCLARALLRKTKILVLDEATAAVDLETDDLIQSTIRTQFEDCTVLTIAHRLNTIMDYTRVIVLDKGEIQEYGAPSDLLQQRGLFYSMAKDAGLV
Protocol: Reversal of MRP-mediated MDR was examined by plating MCF-7/VP cells as described above and exposing the cells to varying concentrations of phenoxymethylquinoxalinone compounds in the absence or presence of 1 nM vincristine for 48 hours. Cell survival was assayed as described above. The percentage of cells that died following treatment was calculated as described above. Inhibition of MRP was manifested as the ability of the compound to enhance the cytotoxicity of vincristine toward MCF-7/VP cells.
Chemosensitization is indicated by a score greater than 1.0.
Chemosensitization is indicated by a score greater than 1.0. […]

P-gp = P-gp (Homo sapiens, UniProt P08183); details: for P-gp antagonism score / Pgp Antagonism: % survival with compound alone / with compound + 50 nM vinblastine; for P-gp antagonism score: >1.0 = chemosensitization; for p-GP/MRP1: ratio of P-gp and MRP1 antagonism scores
P-gp, sequence (P08183 whole entry): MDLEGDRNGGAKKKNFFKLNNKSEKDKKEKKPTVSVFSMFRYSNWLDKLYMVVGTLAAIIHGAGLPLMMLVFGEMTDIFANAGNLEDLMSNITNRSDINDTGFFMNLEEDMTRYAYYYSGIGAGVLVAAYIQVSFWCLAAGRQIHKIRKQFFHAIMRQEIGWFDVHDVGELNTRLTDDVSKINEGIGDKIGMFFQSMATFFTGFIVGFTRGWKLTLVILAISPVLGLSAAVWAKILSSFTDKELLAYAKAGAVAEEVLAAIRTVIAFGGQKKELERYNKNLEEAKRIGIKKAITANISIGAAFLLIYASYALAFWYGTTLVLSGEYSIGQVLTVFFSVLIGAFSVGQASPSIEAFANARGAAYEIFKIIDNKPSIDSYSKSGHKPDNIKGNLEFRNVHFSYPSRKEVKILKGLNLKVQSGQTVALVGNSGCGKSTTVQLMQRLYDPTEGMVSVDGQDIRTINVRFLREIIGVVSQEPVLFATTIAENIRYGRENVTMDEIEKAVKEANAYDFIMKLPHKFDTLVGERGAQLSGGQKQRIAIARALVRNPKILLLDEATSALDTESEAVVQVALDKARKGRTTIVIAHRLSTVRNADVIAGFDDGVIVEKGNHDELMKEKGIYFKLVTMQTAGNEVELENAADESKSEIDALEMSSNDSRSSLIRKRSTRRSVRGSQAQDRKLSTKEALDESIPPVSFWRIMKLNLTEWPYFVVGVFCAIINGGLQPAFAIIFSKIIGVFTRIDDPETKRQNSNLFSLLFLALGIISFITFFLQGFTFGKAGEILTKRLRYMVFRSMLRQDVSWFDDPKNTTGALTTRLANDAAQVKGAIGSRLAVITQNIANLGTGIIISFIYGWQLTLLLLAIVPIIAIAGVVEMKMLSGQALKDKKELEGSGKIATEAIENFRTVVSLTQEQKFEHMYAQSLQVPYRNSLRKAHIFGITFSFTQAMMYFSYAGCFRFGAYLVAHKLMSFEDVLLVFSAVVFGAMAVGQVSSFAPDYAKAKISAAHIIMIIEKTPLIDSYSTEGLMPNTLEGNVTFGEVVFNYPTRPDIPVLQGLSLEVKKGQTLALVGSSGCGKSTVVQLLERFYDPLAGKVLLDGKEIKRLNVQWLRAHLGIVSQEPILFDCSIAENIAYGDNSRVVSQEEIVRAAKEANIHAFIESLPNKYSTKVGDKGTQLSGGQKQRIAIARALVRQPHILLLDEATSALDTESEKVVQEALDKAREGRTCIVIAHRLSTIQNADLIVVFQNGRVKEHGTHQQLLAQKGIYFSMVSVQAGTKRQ
Protocol: The percentage of cells that died following treatment was calculated as a percent decrease in sulforhodamine B binding as compared with control cultures. […] Inhibition of P-gp was manifested as the ability of the compound to enhance the cytotoxicity of vinblastine toward NCI/ADR cells. To assess the toxicity of the compounds toward drug-sensitive cells, the effects of the compounds on the growth of drug-sensitive MCF-7 cells were determined using the same methods.
The P-gp antagonism score was calculated by dividing the percent survival of NCI/ADR cells treated with the compound alone by the percent survival of NCI/ADR cells treated with the compound in the presence of 50 nM vinblastine. Chemosensitization is indicated by a score of more than 1.0.
The P-gp antagonism score was calculated by dividing the percent survival of NCI/ADR cells treated with […] by the percent survival of NCI/ADR cells treated with the compound in the presence of 50 nM vinblastine.

[1] = MCF-7 cells, 48 hours, concentration required to kill 50% of the cells, * = maximum dose tested (low solubility)
[2] = MCF-7 cells, concentration required to kill 50% of the cells
[3] = concentration of compound at the maximum antagonism

SMILES: Cn1c(=O)c(COc2ccccc2)nc2ccccc21 [Compound 1, 1-Methyl-3-phenoxymethyl-1H-quinoxalin-2-one]
IC50 (MCF-7 cells; Homo sapiens, MCF7, 48 h): > 94 µM
MRP1 antagonism score (MRP): 1.0

SMILES: Cn1c(=O)c(COc2ccc(F)cc2)nc2ccccc21 [Compound 2]
IC50 (MCF-7 cells; [1]): 26 µM
MRP1 antagonism score (MRP): 0.8

SMILES: Cn1c(=O)c(COc2ccc(C#N)cc2)nc2ccccc21 [Compound 3, 3-(4-Cyano-phenoxymethyl)-1-methyl-1H-quinoxalin-2-one]
IC50 (MCF-7 cells; Homo sapiens, MCF7, 48 h): > 43 µM
MRP1 antagonism score (MRP): 0.8

SMILES: Cn1c(=O)c(COc2c(F)c(F)c(F)c(F)c2F)nc2ccccc21 [Compound 4]
IC50 (MCF-7 cells; [1]): > 70 µM
MRP1 antagonism score (MRP): 0.8
P-gp antagonism score (P-gp; NCI/ADR cells): 2.1
p-GP/MRP1 (P-gp): 2.6

SMILES: Cn1c(=O)c(COc2ccc(C(=O)c3ccccc3)cc2)nc2ccccc21 [Compound 8, 3-(4-Benzoyl-phenoxymethyl)-1-methyl-1H-quinoxalin-2-one]
IC50 (MCF-7 cells; Homo sapiens, MCF7, 48 h): > 67 µM
MRP1 antagonism score (MRP): 0.9

SMILES: Cc1cc(OCc2nc3ccccc3n(C)c2=O)ccc1[N+](=O)[O-] [Compound 9]
IC50 (MCF-7 cells; [1]): > 77 µM
MRP1 antagonism score (MRP): 1.1
P-gp antagonism score (P-gp; NCI/ADR cells): 1.6
p-GP/MRP1 (P-gp): 1.4

SMILES: COC(=O)c1ccc(OCc2nc3ccccc3n(C)c2=O)c(OC)c1 [Compound 10, 3-Methoxy-4-(4-methyl-3-oxo-3,4-dihydroquinoxalin-2-yl-methoxy)-benzoyl methyl ester]
IC50 (MCF-7 cells; [1]): 71 µM
MRP1 antagonism score (MRP): 1.1
P-gp antagonism score (P-gp; NCI/ADR cells): 5.6
p-GP/MRP1 (P-gp): 5.2

SMILES: Cn1c(=O)c(COc2ccccc2C(=O)Nc2ccccc2)nc2ccccc21 [Compound 11, 2-(4-Methyl-3-oxo-3,4-dihydroquinoxalin-2-yl-methoxy)-N-phenylbenzamide]
IC50 (MCF-7 cells; Homo sapiens, MCF7, 48 h): > 32 µM
MRP1 antagonism score (MRP): 1.0

SMILES: CN(C)c1cccc(OCc2nc3ccccc3n(C)c2=O)c1 [Compound 12]
IC50 (MCF-7 cells; [1]): 57 µM
MRP1 antagonism score (MRP): 0.9
P-gp antagonism score (P-gp; NCI/ADR cells): 1.1
p-GP/MRP1 (P-gp): 1.1

SMILES: CCOC(=O)c1ccc(OCc2nc3ccccc3n(C)c2=O)cc1 [Compound 13, 4-(4-Methyl-3-oxo-3,4-dihydro-quinoxalin-2-ylmethoxy)-benzoyl ethyl ester]
IC50 (MCF-7 cells; [1]): > 74 µM
MRP1 antagonism score (MRP): 0.9
P-gp antagonism score (P-gp; NCI/ADR cells): 3.8
p-GP/MRP1 (P-gp): 4.2

SMILES: Cn1c(=O)c(COc2cccc(Nc3ccccc3)c2)nc2ccccc21 [Compound 14]
IC50 (MCF-7 cells; [1]): 25 µM
MRP1 antagonism score (MRP): 0.9
P-gp antagonism score (P-gp; NCI/ADR cells): 1.3
p-GP/MRP1 (P-gp): 1.5

SMILES: Cn1c(=O)c(COc2ccccc2Cc2ccccc2)nc2ccccc21 [Compound 15]
IC50 (MCF-7 cells; [1]): 8.1 µM
MRP1 antagonism score (MRP): 1.1
P-gp antagonism score (P-gp; NCI/ADR cells): 1.0
p-GP/MRP1 (P-gp): 0.9

p-GP/MRP1 (P-gp): 0.9
SMILES: Cn1c(=O)c(COc2cccnc2)nc2ccccc21 [Compound 16]
IC50 (MCF-7 cells; [1]): > 56 µM
MRP1 antagonism score (MRP): 1.1
P-gp antagonism score (P-gp; NCI/ADR cells): 1.0

SMILES: Cn1c(=O)c(COc2ccc(-c3ccccc3)cc2)nc2ccccc21 [Compound 17]
IC50 (MCF-7 cells; [1]): 30 µM
MRP1 antagonism score (MRP): 0.7

SMILES: COc1cc(OC)cc(OCc2nc3ccccc3n(C)c2=O)c1 [Compound 21]
IC50 (MCF-7 cells; [1]): 25 µM
MRP1 antagonism score (MRP): 0.9

SMILES: COc1ccc(OCc2nc3ccccc3n(C)c2=O)cc1OC [Compound 22]
IC50 (MCF-7 cells; [1]): 28 µM
MRP1 antagonism score (MRP): 0.9

SMILES: COc1cc(OCc2nc3ccccc3n(C)c2=O)cc(OC)c1OC [Compound 23]
IC50 (MCF-7 cells; [1]): 21 µM
MRP1 antagonism score (MRP): 0.9
P-gp antagonism score (P-gp; NCI/ADR cells): 1.2
p-GP/MRP1 (P-gp): 1.3

SMILES: CN1CCc2c1nc1cc(Br)ccc1c2N [Compound 36]
Toxicity (MCF-7 cells): 99% and 94%
MRP Antagonism (MRP): 1.6
Pgp Antagonism (P-gp; NCI/ADR cells): 1.3

SMILES: CCC(=O)Nc1c2c(nc3ccccc13)N(C)CC2 [Compound 37]
MRP Antagonism (MRP): 1.0
Pgp Antagonism (P-gp; NCI/ADR cells): 1.6

SMILES: CN1CCc2c1nc1ccccc1c2NC(=O)Cc1ccccc1 [Compound 38]
MRP Antagonism (MRP): 1.0

SMILES: CC(C)NCC(=O)Nc1c2c(nc3ccccc13)N(C)CC2 [Compound 39]
Toxicity (MCF-7 cells): 39%
MRP Antagonism (MRP): 1.4
Pgp Antagonism (P-gp; NCI/ADR cells): 1.8

SMILES: CN1CCc2c1nc1ccccc1c2NC(=O)CNC(C)(C)C [Compound 40]
Toxicity (MCF-7 cells): 28%
MRP Antagonism (MRP): 1.2
Pgp Antagonism (P-gp; NCI/ADR cells): 3.2

SMILES: CCN(CC)CC(=O)Nc1c2c(nc3ccccc13)N(C)CC2 [Compound 41]
Toxicity (MCF-7 cells): 30%
MRP Antagonism (MRP): 1.2
Pgp Antagonism (P-gp; NCI/ADR cells): 6.0

SMILES: CN1CCc2c1nc1ccccc1c2NC(=O)CN1CCCCC1 [Compound 42]
Toxicity (MCF-7 cells): 51%
MRP Antagonism (MRP): 1.2
Pgp Antagonism (P-gp; NCI/ADR cells): 4.1

SMILES: CCCCN(CCCC)CC(=O)Nc1c2c(nc3ccccc13)N(C)CC2 [Compound 43]
Toxicity (MCF-7 cells): 50%
MRP Antagonism (MRP): 1.3
Pgp Antagonism (P-gp; NCI/ADR cells): 4.2

SMILES: CN1CCc2c1nc1ccccc1c2NC(=O)CNCCc1ccc(O)cc1 [Compound 44]
Toxicity (MCF-7 cells): 21%
MRP Antagonism (MRP): 1.4
Pgp Antagonism (P-gp; NCI/ADR cells): 1.7

SMILES: CN1CCc2c1nc1ccccc1c2NC(=O)C12CC3CC(CC(C3)C1)C2 [Compound 45]
Toxicity (MCF-7 cells): 29%
MRP Antagonism (MRP): 0.9
Pgp Antagonism (P-gp; NCI/ADR cells): 4.7

SMILES: CN1CCc2c1nc1ccccc1c2NC(=O)CCc1cc(C(C)(C)C)c(O)c(C(C)(C)C)c1 [Compound 46]
Toxicity (MCF-7 cells): 99%
MRP Antagonism (MRP): 1.0
Pgp Antagonism (P-gp; NCI/ADR cells): 1.0

SMILES: CN1CCc2c1nc1ccccc1c2N=C(c1ccccc1)N1CCCCC1 [Compound 47]
Toxicity (MCF-7 cells): 58%
MRP Antagonism (MRP): 1.0
Pgp Antagonism (P-gp; NCI/ADR cells): 2.4

SMILES: Nc1c2c(nc3ccccc13)N(C1CCCCC1)CC2 [Compound 49]
Toxicity (MCF-7 cells): 97%
MRP Antagonism (MRP): 0.6
Pgp Antagonism (P-gp; NCI/ADR cells): 0.8

SMILES: Nc1c2c(nc3ccccc13)N(c1ccccc1)CC2 [Compound 51]
Toxicity (MCF-7 cells): 52%
MRP Antagonism (MRP): 1.1
Pgp Antagonism (P-gp; NCI/ADR cells): 2.7

SMILES: O=C(Nc1c2c(nc3ccccc13)N(Cc1cccc(Cl)c1)CC2)C12CC3CC(CC(C3)C1)C2 [Compound 52]
Toxicity (MCF-7 cells): 33%
MRP Antagonism (MRP): 1.2
Pgp Antagonism (P-gp; NCI/ADR cells): 1.2

SMILES: Nc1c2c(nc3ccccc13)N(Cc1ccccc1)CC2 [Compound 53]
Toxicity (MCF-7 cells): 47%
MRP Antagonism (MRP): 1.0
Pgp Antagonism (P-gp; NCI/ADR cells): 3.1

SMILES: CC(C)NCC(=O)Nc1c2c(nc3ccccc13)N(Cc1ccccc1)CC2 [Compound 59]
Toxicity (MCF-7 cells): 45%
MRP Antagonism (MRP): 0.99
Pgp Antagonism (P-gp; NCI/ADR cells): 13.0

SMILES: CC(C)(C)NCC(=O)Nc1c2c(nc3ccccc13)N(Cc1ccccc1)CC2 [Compound 60]
Toxicity (MCF-7 cells): 29%

SMILES: CCN(CC)CC(=O)Nc1c2c(nc3ccccc13)N(Cc1ccccc1)CC2 [Compound 61]
Toxicity (MCF-7 cells): 14%
MRP Antagonism (MRP): 0.98
Pgp Antagonism (P-gp; NCI/ADR cells): 14.8

SMILES: O=C(CN1CCCCC1)Nc1c2c(nc3ccccc13)N(Cc1ccccc1)CC2 [Compound 62]
Toxicity (MCF-7 cells): 0%
MRP Antagonism (MRP): 1.1 and 1.09
Pgp Antagonism (P-gp; NCI/ADR cells): 17.8

SMILES: CN1CCN(CC(=O)Nc2c3c(nc4ccccc24)N(Cc2ccccc2)CC3)CC1 [Compound 63]
Toxicity (MCF-7 cells): 21%
MRP Antagonism (MRP): 1.07
Pgp Antagonism (P-gp; NCI/ADR cells): 7.5

SMILES: CC(C)(C)c1cc(CCC(=O)Nc2c3c(nc4ccccc24)N(Cc2ccccc2)CC3)cc(C(C)(C)C)c1O [Compound 64]
Toxicity (MCF-7 cells): 50%
MRP Antagonism (MRP): 1.15
Pgp Antagonism (P-gp; NCI/ADR cells): 13.2

SMILES: Nc1c2c(nc3ccccc13)N(Cc1ccccc1)CC2 [Compound 4001]
Toxicity IC50 (MCF-7 cells; [2]): 1.7 µg/mL
Antagonism at IC20 or less, P-gp (P-gp): 1.0
Maximum Antagonism (P-gp): 4.0 (3.1)
Maximum Antagonism (conc. μg/ml) (P-gp): 4.0 (3.1) μg/ml

SMILES: Fc1cccc(CNc2c3c(nc4ccccc24)N(Cc2ccccc2)CC3)c1 [Compound 4003]
Toxicity IC50 (MCF-7 cells; [2]): >25 µg/mL
Maximum Antagonism (conc. μg/ml) (P-gp; [3]): 25 µg/mL

SMILES: COc1cc(CNc2c3c(nc4ccccc24)N(Cc2ccccc2)CC3)cc(OC)c1 [Compound 4005]
Toxicity IC50 (MCF-7 cells; [2]): 20 µg/mL
Maximum Antagonism (conc. μg/ml) (P-gp; [3]): 25 µg/mL

SMILES: O=C(CN1CCCCC1)Nc1c2c(nc3ccccc13)N(Cc1ccccc1)CC2 [Compound 4007]
Toxicity IC50 (MCF-7 cells; [2]): 6 µg/mL
potency of P-gp antagonism compared with verapamil (P-gp; FIG. 7, NCI/ADR cells, 50 nM vinblastine): somewhat more potent than verapamil
Maximum Antagonism (conc. μg/ml) (P-gp; [3]): 3.1 µg/mL

SMILES: O=C(Nc1c2c(nc3ccccc13)N(Cc1ccccc1)CC2)c1c(F)cccc1C(F)(F)F [Compound 4009]
Toxicity IC50 (MCF-7 cells; [2]): 6 µg/mL
Maximum Antagonism (conc. μg/ml) (P-gp; [3]): 3.1 µg/mL

SMILES: O=C(Nc1c2c(nc3ccccc13)N(Cc1ccccc1)CC2)c1ccc(F)c(C(F)(F)F)c1 [Compound 4010]
Toxicity IC50 (MCF-7 cells; [2]): 9 µg/mL
Maximum Antagonism (conc. μg/ml) (P-gp; [3]): 3.1 µg/mL
